We go through 4 substances from patent US20220193185A1, “COMBINATION OF SYNTHETIC PEPTIDES WITH AFFINITY TO THE TGF-ß RECEPTOR AND WITH AFFINITY TO THE IL-10 RECEPTOR, PHARMACEUTICAL COMPOSITION AND THEIR USE AS IMMUNOMODULATORS IN THE TREATMENT OF AUTOIMMUNE, INFLAMMATORY OR ALLERGIC DISEASES” (Universidade Federal de Uberlândia, priority 2019, published 2022).

Data set [1] concerns TGF-β1 receptor on A549 cells. As to the kind of experiment: ELISA on cells of the A549 line using anti-TGF-β1 antibody. The data set is classed as binding, human. As to the method:
The peptides described in this patent application were selected using the Phage Display (PD) methodology. The selection was performed by evaluating the ability of said peptides to recognize the TGF-β1 receptor on A549 cells, using an ELISA assay. MaxiSorp 96-well microtiter plates were coated with 1×10^6 cells diluted in PBS and incubated overnight at 4° C. Cells were blocked with 3% PBS-BSA for 1 h at 37° C., washed once with PBS and incubated with […] of each TGF-β1 mimetic peptide or 5 ng/ml of recombinant TGF-β1 for 1 h at 37° C. After washing, the plate was incubated for 1 h at 37° C. with anti-TGF-β1 antibody. The plate was washed and incubated with HRP-labeled anti-human IgG antibody for 1 h at 37° C. After washing, TMB substrate solution was added to the plate; the reaction was stopped by adding the 2N H2SO4 solution and read at 492 nm in a microplate reader.
To investigate whether the synthesized peptides could bind to cell receptors, an ELISA assay was performed on cells of the A549 line using commercial anti-TGF-β1 antibody.

The nature of data set [2]: aggregation behavior in solution by Dynamic Light Scattering (DLS). As to conditions: TGF-β1 mimetic peptides in solution. The class given is physicochemical.
For another data set, the system named is NFkB pathway. As to the kind of experiment: NFkB expression in Jurkat cells, luciferase (TGF-β1 mimetic peptides). As to conditions: cells pretreated with TNF-α, then peptide; 24 hours. The class given is cell-based, human. As to the method:
Two different cell treatments were performed using Jurkat cells to analyze NFkB expression after 12, 24 and 48 hours. In the first test, Jurkat cells were treated only with peptides (no pathway activating molecule) at different concentrations to analyze the ability of each peptide to induce NFkB expression (Figure not shown). None of the tested concentrations induced any type of pathway activation.
The assay was carried out in such a way that a total of 3×10^5 cells/well ([…]) was pretreated with […] of a composition comprising one of the synthetic peptides in concentrations of 100 μM, 10 μM, 1 μM, and 0.1 μM for 1 hour at 37° C. in 5% CO2, followed by stimulation with TNF-α (200 ng/ml) for 12, 24 and 48 hours. The same stimuli were applied to cells pretreated with TNF-α (200 ng/ml) for 1 hour at 37° C. in 5% CO2 followed by stimulation with peptides at 100 μM, 10 μM, 1 μM and 0.1 μM for 12, 24 and 48 hours. Then, […] of supernatant was transferred to a white plate and Quanti-Luc reagent was used to measure the luciferase product. As a control, the peptides were tested at the same concentrations, without any pathway activating molecule, to investigate whether they could activate the NFkB pathway. TNF-α (200 ng/mL) was used as a positive control and rIL-10 (0.4 ng/mL) as a negative control. […].

In data set [3] the test system is TFGβRII/SMAD-dependent pathway. As to the kind of experiment: HEK-blue-TGFβ reporter cells, SEAP production. The class given is cell-based. As to conditions: tested at 0.1, 1, 10 and 100 μM. The protocol:
After 12 hours of stimulation (FIG. 4A), all peptides were able to bind to the receptor.
The assay was performed in such a way that approximately 2.5×10^4 cells/well (100 μL) were treated with 100 μL of all synthetic peptides at different concentrations (100 μM, 10 μM, 1 μM and 0.1 μM) while rTGF-β1 ([…]) at 100 ng/ml was used as a positive control. After incubating the cells for 12, 24 and 48 hours at 37° C. in 5% CO2, […] of supernatant was transferred to a Greiner plate to which […] of Quanti-blue solution was added. The plate was incubated for 1 hour at 37° C. in 5% CO2 and the production of SEAP (secreted alkaline phosphatase) was detected at 655 nm. All tests were performed in triplicate.

Bridges are numbered along the chain shown (N, C = ends). Where no end group is shown, it is not given here.

Take “Pep 1-TGF-β1: synthetic peptide with affinity to the TGF-β receptor, SEQ ID N 01, with disulfide bridges (HACFLPASGLCGGGS; disulfide 3-11)”: in data set [1], the “recognition of receptor-bound peptide by anti-TGF-β1 antibody compared to recombinant TGF-β1” value is given as “in the same way that the antibody recognized the TGF-β1 recombinant molecule”. Also, the hydrodynamic radius in data set [2] stood at 0.58 nm.

As to “Pep 3-TGF-β1: synthetic peptide with affinity to the TGF-β receptor, SEQ ID N 03, free of disulfide bridges (HASESPLKRQSGGGS)”, the “recognition of receptor-bound peptide by anti-TGF-β1 antibody compared to recombinant TGF-β1” value in data set [1] is reported as “in the same way that the antibody recognized the TGF-β1 recombinant molecule”.

For the substance “Pep 4-TGF-β1: synthetic peptide with affinity to the TGF-β receptor, SEQ ID N 04, with disulfide bridges (HACKLQRSEPCGGGS; disulfide 3-11 (inferred))”, in data set [1], the “recognition of receptor-bound peptide by anti-TGF-β1 antibody compared to recombinant TGF-β1” value is given as “recognized as statistically different”.

Consider “Pep 8-TGF-β1: synthetic peptide with affinity to the TGF-β receptor, SEQ ID N 08, free of disulfide bridges (HASTLPSNTHSGGGS)”, for which, in data set [1], the “recognition of receptor-bound peptide by anti-TGF-β1 antibody compared to recombinant TGF-β1” value is “recognized as statistically different”. In addition, the “concentration with statistically significant reduction of the NFKB pathway” value with NFkB pathway was found to be 0.1 µM. Moreover, the “concentrations with statistically significant activation of the SMAD-dependent pathway (SEAP)” value in data set [3] (12 hours) was 1 µM. In addition, the “concentrations with significant maintained activation of the SMAD-dependent pathway (SEAP)” value was 1 µM in data set [3] (24 hours); 0.1 μM, 1 μM and 10 μM in data set [3] (48 hours).
